Two molecules from ChEMBL document CHEMBL2417377, “Hit-to-lead optimization and kinase selectivity of imidazo[1,2-a]quinoxalin-4-amine derived JNK1 inhibitors” (Bioorg Med Chem Lett, 2013) can be followed below.

Some results are limits rather than exact numbers.

In assay [1] the target is Ribosomal protein S6 kinase alpha-3 (Homo sapiens) (UniProt P51812). The assay is described as follows: Inhibition of RSK2 domain2 in human PC3 cell lysates at 10 uM using desthiobiotin-tagged ATP probe AX9989 followed by trypsinization by LC/MS analysis. The following applies: PC-3.
In assay [2] the target is T1, Ephrin type-B receptor 2 (Homo sapiens) (UniProt P29323).
T1 sequence (whole entry): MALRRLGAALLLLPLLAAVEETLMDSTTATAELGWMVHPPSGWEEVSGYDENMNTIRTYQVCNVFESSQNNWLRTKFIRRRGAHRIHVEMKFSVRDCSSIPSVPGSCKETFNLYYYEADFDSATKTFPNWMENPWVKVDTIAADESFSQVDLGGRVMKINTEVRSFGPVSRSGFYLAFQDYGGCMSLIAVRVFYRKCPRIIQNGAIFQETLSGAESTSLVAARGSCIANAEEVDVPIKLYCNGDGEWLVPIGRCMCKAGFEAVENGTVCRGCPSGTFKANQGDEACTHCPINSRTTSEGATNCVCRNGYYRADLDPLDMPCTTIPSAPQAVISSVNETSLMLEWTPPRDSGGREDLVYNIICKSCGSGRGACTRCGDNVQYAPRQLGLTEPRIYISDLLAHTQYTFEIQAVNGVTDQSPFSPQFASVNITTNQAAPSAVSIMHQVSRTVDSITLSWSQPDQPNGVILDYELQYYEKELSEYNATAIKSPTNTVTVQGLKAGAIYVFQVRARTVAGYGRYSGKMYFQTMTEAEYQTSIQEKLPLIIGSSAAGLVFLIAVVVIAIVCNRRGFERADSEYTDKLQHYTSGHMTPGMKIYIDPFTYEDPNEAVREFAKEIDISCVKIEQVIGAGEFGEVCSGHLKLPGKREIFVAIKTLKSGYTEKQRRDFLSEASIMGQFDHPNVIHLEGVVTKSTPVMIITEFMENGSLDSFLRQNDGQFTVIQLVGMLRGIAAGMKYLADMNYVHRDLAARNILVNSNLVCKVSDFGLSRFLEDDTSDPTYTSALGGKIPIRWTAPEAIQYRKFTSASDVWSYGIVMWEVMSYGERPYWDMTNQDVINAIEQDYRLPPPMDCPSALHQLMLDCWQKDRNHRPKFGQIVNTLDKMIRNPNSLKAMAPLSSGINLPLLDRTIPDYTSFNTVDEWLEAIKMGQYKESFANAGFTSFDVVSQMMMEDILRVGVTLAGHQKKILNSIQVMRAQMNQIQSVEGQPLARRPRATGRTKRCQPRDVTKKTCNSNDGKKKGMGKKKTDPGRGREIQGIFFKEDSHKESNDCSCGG
The assay is described as follows: Inhibition of EphB2 in human PC3 cell lysates at 10 uM using desthiobiotin-tagged ATP probe AX9989 followed by trypsinization by LC/MS analysis. The following applies: PC-3.

Assay [3] concerns the target Proto-oncogene tyrosine-protein kinase Src (Homo sapiens) (UniProt P12931). The assay is described as follows: Inhibition of SRC in human PC3 cell lysates at 10 uM using desthiobiotin-tagged ATP probe AX9989 followed by trypsinization by LC/MS analysis. The note with it: PC-3.
Assay [4] addresses Hepatocyte growth factor receptor (Homo sapiens) (UniProt P08581). The assay is described as follows: Inhibition of MET in human PC3 cell lysates at 10 uM using desthiobiotin-tagged ATP probe AX9989 followed by trypsinization by LC/MS analysis. The following applies: PC-3.
The target of assay [5] is SRSF protein kinase 2 (Homo sapiens) (UniProt P78362). Nature of the assay: Inhibition of SRPK2 in human PC3 cell lysates at 10 uM using desthiobiotin-tagged ATP probe AX9989 followed by trypsinization by LC/MS analysis. The note with it: PC-3.
Assay [6] has as its system PC-3. The assay is described as follows: Inhibition of KHS2 in human PC3 cell lysates at 10 uM using desthiobiotin-tagged ATP probe AX9989 followed by trypsinization by LC/MS analysis. The format is cell-free.
In assay [7] the target is Glycogen synthase kinase-3 beta (Homo sapiens) (UniProt P49841). Nature of the assay: Inhibition of GSK3beta in human PC3 cell lysates at 10 uM using desthiobiotin-tagged ATP probe AX9989 followed by trypsinization by LC/MS analysis. The note with it: PC-3.
The target of assay [8] is T2, Serine/threonine-protein kinase TAO3 (Homo sapiens) (UniProt Q9H2K8).
T2 sequence (whole entry): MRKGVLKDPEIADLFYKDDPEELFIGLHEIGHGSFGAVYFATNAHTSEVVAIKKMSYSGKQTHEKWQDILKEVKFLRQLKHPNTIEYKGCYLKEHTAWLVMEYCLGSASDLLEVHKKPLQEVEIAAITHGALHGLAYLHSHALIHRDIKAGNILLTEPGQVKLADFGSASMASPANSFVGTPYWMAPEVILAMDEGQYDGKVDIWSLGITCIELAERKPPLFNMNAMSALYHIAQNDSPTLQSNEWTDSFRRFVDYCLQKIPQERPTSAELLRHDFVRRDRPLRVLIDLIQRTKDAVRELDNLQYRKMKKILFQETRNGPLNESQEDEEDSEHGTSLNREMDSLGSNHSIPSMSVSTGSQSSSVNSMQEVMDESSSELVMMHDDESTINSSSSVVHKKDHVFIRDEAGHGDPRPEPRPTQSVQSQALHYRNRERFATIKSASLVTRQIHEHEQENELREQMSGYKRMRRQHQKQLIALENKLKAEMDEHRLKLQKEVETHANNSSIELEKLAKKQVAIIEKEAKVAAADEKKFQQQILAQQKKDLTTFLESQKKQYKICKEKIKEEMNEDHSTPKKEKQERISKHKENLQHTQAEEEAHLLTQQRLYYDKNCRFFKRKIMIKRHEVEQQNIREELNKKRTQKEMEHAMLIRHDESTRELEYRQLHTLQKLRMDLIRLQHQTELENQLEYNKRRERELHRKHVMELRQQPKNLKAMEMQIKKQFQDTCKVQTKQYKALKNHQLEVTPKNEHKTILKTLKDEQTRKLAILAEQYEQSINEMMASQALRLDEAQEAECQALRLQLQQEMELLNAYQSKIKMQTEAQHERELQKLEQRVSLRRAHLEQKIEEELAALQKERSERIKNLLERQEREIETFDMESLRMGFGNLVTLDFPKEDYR
Nature of the assay: Inhibition of TAO3 in human PC3 cell lysates at 10 uM using desthiobiotin-tagged ATP probe AX9989 followed by trypsinization by LC/MS analysis. The following applies: PC-3.

For assay [9], the target named is Cyclin-dependent kinase 16 (Homo sapiens) (UniProt Q00536). Nature of the assay: Inhibition of PCTAIRE1 in human PC3 cell lysates at 10 uM using desthiobiotin-tagged ATP probe AX9989 followed by trypsinization by LC/MS analysis. The note with it: PC-3.
For assay [10], the target named is Phosphatidylinositol 4-kinase beta (Homo sapiens) (UniProt Q9UBF8). Nature of the assay: Inhibition of PI4KB in human PC3 cell lysates at 10 uM using desthiobiotin-tagged ATP probe AX9989 followed by trypsinization by LC/MS analysis. The note with it: PC-3.
The target in assay [11] is MAP/microtubule affinity-regulating kinase 3 (Homo sapiens) (UniProt P27448). Nature of the assay: Inhibition of MARK3 in human PC3 cell lysates at 10 uM using desthiobiotin-tagged ATP probe AX9989 followed by trypsinization by LC/MS analysis. The note with it: PC-3.

Chain of Ribosomal protein S6 kinase alpha-3 (Homo sapiens) (P51812 whole entry, the tested form may be a part): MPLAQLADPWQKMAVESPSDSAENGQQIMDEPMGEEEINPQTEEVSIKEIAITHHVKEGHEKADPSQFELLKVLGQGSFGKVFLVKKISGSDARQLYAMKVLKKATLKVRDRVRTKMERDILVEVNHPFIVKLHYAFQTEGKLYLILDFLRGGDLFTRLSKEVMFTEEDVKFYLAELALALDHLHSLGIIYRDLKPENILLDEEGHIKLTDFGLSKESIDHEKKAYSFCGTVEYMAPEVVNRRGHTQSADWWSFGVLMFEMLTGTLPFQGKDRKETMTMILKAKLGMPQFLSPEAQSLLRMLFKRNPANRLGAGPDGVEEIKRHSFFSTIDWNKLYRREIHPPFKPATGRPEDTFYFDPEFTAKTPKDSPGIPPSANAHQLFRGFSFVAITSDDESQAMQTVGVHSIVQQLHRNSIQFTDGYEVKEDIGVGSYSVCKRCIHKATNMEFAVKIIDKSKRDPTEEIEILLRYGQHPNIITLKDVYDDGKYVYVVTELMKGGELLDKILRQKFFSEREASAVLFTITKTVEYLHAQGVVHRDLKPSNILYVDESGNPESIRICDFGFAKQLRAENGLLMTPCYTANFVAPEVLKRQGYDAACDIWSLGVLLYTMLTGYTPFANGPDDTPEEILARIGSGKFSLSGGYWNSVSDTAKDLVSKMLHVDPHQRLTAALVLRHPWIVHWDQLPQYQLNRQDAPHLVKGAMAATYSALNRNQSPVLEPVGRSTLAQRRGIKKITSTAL
Chain of Glycogen synthase kinase-3 beta (Homo sapiens) (P49841 whole entry, looked up): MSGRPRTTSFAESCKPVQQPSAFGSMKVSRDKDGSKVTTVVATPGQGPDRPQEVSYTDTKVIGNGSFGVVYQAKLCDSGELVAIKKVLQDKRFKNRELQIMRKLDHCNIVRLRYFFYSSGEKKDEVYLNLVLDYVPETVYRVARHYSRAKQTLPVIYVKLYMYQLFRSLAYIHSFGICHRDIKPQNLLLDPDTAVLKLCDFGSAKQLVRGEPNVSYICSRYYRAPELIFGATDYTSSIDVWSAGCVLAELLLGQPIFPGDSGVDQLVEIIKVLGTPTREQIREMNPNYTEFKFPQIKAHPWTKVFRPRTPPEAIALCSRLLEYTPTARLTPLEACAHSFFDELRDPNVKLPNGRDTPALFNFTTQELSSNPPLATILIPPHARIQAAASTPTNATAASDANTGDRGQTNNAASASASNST
Chain of Phosphatidylinositol 4-kinase beta (Homo sapiens) (Q9UBF8 2-816 limits assumed): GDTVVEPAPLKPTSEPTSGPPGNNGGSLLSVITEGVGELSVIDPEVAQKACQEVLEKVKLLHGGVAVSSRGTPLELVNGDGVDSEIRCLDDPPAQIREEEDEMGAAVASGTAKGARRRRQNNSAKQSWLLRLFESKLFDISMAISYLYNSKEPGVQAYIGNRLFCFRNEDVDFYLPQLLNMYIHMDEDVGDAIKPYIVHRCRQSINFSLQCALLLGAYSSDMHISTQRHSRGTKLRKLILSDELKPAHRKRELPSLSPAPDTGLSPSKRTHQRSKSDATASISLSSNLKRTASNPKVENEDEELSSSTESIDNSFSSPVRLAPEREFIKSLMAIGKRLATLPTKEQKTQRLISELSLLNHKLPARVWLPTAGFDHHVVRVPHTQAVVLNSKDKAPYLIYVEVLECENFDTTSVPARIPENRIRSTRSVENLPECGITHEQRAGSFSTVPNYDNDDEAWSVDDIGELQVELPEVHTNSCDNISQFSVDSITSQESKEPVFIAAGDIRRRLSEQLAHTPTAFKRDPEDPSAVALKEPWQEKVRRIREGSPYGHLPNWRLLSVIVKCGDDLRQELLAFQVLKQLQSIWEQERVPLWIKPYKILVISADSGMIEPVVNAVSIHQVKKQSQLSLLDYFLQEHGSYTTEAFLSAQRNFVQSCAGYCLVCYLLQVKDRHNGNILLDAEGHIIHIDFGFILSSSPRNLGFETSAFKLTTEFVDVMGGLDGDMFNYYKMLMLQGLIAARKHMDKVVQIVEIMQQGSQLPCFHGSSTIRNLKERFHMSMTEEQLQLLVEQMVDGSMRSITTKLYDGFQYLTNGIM
Chain of SRSF protein kinase 2 (Homo sapiens) (P78362 whole entry, looked up): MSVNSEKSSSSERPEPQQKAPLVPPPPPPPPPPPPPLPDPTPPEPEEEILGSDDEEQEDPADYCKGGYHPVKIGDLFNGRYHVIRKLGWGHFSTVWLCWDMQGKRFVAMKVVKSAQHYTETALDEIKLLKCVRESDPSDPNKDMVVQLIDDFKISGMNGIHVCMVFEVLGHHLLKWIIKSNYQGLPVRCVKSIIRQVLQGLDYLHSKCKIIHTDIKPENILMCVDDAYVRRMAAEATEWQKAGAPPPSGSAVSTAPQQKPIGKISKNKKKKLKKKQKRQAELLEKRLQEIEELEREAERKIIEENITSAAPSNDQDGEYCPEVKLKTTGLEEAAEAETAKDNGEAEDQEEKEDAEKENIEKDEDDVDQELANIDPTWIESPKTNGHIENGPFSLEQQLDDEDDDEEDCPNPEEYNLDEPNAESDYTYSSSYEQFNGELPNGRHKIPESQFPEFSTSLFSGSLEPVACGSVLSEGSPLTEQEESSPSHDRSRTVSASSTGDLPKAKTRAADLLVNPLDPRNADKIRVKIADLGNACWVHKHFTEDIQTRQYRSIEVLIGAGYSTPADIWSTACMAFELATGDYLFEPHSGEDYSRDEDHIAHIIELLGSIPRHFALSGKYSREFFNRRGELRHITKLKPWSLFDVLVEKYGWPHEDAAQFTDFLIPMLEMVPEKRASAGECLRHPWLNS
Chain of Hepatocyte growth factor receptor (Homo sapiens) (P08581 whole entry): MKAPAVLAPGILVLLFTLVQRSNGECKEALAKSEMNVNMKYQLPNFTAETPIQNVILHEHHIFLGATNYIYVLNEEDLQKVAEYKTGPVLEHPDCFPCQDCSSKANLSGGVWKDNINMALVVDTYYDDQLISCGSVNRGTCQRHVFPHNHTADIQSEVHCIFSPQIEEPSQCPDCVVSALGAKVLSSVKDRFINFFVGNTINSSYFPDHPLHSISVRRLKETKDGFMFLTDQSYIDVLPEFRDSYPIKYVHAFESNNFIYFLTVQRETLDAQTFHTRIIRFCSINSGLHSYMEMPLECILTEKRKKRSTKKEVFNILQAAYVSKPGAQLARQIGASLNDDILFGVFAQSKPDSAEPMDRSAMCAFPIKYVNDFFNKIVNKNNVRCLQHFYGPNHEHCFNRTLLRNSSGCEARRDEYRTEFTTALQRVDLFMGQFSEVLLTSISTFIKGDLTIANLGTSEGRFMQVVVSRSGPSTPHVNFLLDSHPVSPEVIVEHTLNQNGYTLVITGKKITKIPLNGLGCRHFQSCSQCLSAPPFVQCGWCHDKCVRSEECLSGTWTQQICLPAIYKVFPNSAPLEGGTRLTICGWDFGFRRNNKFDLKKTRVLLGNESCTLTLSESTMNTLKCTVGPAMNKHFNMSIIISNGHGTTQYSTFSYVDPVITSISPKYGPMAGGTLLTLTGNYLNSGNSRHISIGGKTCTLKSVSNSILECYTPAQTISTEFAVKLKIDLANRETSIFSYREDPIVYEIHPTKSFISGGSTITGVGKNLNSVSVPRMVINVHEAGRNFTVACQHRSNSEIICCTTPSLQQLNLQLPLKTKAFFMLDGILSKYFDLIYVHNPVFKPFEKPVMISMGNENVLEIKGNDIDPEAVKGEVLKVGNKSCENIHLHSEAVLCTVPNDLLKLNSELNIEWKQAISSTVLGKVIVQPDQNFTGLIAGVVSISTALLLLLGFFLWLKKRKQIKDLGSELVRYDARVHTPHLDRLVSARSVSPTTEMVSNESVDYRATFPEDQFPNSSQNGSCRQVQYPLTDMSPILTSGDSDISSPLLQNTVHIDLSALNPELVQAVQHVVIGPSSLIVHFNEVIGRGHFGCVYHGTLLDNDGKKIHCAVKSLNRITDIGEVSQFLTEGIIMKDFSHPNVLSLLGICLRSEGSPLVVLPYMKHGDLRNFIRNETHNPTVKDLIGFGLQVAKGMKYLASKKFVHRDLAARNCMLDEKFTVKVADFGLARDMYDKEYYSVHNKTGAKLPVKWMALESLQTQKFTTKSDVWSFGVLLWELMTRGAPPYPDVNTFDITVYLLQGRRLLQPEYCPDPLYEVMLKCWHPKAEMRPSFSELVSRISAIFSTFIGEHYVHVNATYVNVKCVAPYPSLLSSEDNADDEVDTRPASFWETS
Chain of Proto-oncogene tyrosine-protein kinase Src (Homo sapiens) (P12931 2-536 limits assumed): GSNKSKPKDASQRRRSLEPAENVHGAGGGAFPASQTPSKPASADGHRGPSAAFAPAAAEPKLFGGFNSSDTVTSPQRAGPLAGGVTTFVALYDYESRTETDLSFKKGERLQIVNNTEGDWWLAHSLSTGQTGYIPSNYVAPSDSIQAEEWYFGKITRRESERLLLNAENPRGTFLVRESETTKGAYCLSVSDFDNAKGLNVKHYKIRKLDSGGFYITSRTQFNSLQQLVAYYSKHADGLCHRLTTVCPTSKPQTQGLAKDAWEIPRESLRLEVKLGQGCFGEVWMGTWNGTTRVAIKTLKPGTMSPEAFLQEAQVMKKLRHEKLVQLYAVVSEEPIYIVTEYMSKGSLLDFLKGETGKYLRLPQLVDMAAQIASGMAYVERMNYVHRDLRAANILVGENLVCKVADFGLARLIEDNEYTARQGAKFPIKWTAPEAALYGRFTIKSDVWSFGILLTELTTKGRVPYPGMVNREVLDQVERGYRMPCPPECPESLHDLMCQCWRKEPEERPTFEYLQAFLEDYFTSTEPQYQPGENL

On to `O=C(NC1(c2ccccc2)CCC1)c1ccc2nc(N[C@H]3CC[C@H](O)CC3)c3nccn3c2c1`, for which the inhibition in assay [1], in assay [2], in assay [3], in [4], in assay [5] and in assay [6] was under 35% each time. In addition, the inhibition in assay [7], in assay [8], in assay [9], in [10] and in assay [11] was under 35% throughout.

Turning to `O=C(O)c1ccc2nc(N[C@H]3CC[C@H](O)CC3)c3nccn3c2c1`, the inhibition in [1], in assay [2], in [3], in [4], in assay [5] and in [6] was under 35% throughout. Also, the inhibition in assay [7] is 98.6%; in assay [8], under 35%; in [9], 71.1%; in assay [10], 99.2%; in [11] it was under 35%.

For orientation: inhibition means the percentage by which the read-out fell short of the control. A low value points to little suppression.
